Results published in PubChem BioAssay AID248 (DTP/NCI, 2004).
Where “and” joins values, the source holds several entries; their conditions need not be identical. Equal entries are not always repeated. Toxic doses and inconclusive results are not listed. Rule as the data show it: active = T/C of 150% or more; inactive = T/C below 125%.

Tested on: L1210 leukemia ip in BDF1 mice, survival T/C
Experiment: NCI In Vivo Anticancer Drug Screen. Data for tumor model L1210 Leukemia (intraperitoneal) in B6D2F1 (BDF1) mice
Settings: endpoint: mean survival time, higher = longer survival
Summary of the method: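 Ratio derived from survival: compound-dosed mice over vehicle-dosed mice, all bearing a transplantable tumor.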

[1] = dose: 100.0 mg/kg/injection, schedule: Q04DX002 (ip), vehicle: Klucel (hydroxypropylcellulose) (HPC)
[2] = dose: 200.0 mg/kg/injection, schedule: Q04DX002 (ip), vehicle: Klucel (hydroxypropylcellulose) (HPC)
[3] = dose: 100.0 mg/kg/injection, schedule: Q01DX001 (ip), vehicle: Klucel (hydroxypropylcellulose) (HPC)
[4] = dose: 200.0 mg/kg/injection, schedule: Q01DX001 (ip), vehicle: Klucel (hydroxypropylcellulose) (HPC)
[5] = dose: 100.0 mg/kg/injection, schedule: Q04DX003 (ip), vehicle: Klucel (hydroxypropylcellulose) (HPC)
[6] = dose: 200.0 mg/kg/injection, schedule: Q04DX003 (ip), vehicle: Klucel (hydroxypropylcellulose) (HPC)
[7] = dose: 400.0 mg/kg/injection, schedule: Q04DX003 (ip), vehicle: Klucel (hydroxypropylcellulose) (HPC)
[8] = dose: 100.0 mg/kg/injection, schedule: Q01DX009 (ip), vehicle: Klucel (hydroxypropylcellulose) (HPC)
[9] = dose: 100.0 mg/kg/injection, schedule: Q01DX001 (ip), vehicle: saline
[10] = dose: 200.0 mg/kg/injection, schedule: Q01DX001 (ip), vehicle: saline
[11] = dose: 400.0 mg/kg/injection, schedule: Q01DX001 (ip), vehicle: saline

Measured: T/C

CC1(C)N=C(N)N=C(N)N1c1cccc(CCCCc2cccc(S(=O)(=O)F)c2)c1
inactive: dose: 6.25 mg/kg/injection, schedule: Q01DX009 (ip), vehicle: saline sonified 100 % of control | dose: 6.25 mg/kg/injection, schedule: Q04DX003 (ip), vehicle: saline sonified 93 % of control | dose: 12.5 mg/kg/injection, schedule: Q01DX009 (ip), vehicle: saline sonified 88 % of control | dose: 12.5 mg/kg/injection, schedule: Q04DX003 (ip), vehicle: saline sonified 98 % of control | dose: 25.0 mg/kg/injection, schedule: Q01DX009 (ip), vehicle: saline sonified 92 % of control | dose: 25.0 mg/kg/injection, schedule: Q04DX003 (ip), vehicle: saline sonified 93 % of control

CC(=O)C1CCCC(=O)/C=C/C(=O)O1 (configuration not stated)
inactive: [1] 92 % of control | [2] 100 % of control

N=C(N)SC1c2ccccc2-c2cc([N+](=O)[O-])ccc21 (configuration not stated)
inactive: dose: 100.0 mg/kg/injection, schedule: Q01DX005 (ip), vehicle: Klucel (hydroxypropylcellulose) (HPC) 105 % of control | [1] 101 % of control | dose: 200.0 mg/kg/injection, schedule: Q01DX005 (ip), vehicle: Klucel (hydroxypropylcellulose) (HPC) 98 % of control | [2] 114 % of control

COc1c(O)c2c(=O)cc3c4c5c(cc(=O)c6c(O)c(OC)c(CC(C)O)c(c(c1CC(C)O)c24)c65)OCO3 (configuration not stated)
inactive: [1] 109 % of control | [2] 102 % of control | dose: 400.0 mg/kg/injection, schedule: Q04DX002 (ip), vehicle: Klucel (hydroxypropylcellulose) (HPC) 102 % of control

CCCCCCCCCCCC(c1ccccc1)[N+](C)(C)C (configuration not stated)
inactive: dose: 0.5 mg/kg/injection, schedule: Q01DX001 (ip), vehicle: saline 103 % of control | dose: 1.0 mg/kg/injection, schedule: Q01DX001 (ip), vehicle: saline 94 % of control | dose: 1.0 mg/kg/injection, schedule: Q01DX009 (ip), vehicle: saline 91 % of control | dose: 2.0 mg/kg/injection, schedule: Q01DX001 (ip), vehicle: saline 100 % of control | dose: 2.0 mg/kg/injection, schedule: Q01DX009 (ip), vehicle: saline 109 % of control | dose: 4.0 mg/kg/injection, schedule: Q01DX001 (ip), vehicle: saline 96 % of control | dose: 4.0 mg/kg/injection, schedule: Q01DX009 (ip), vehicle: saline 110 % of control | dose: 8.0 mg/kg/injection, schedule: Q01DX001 (ip), vehicle: saline 97 % of control

CC1C(=O)CCC2(C)CCC(C(=O)/C=C/c3ccco3)CC12 (configuration not stated)
inactive: [3] 100 % of control | [4] 102 % of control | dose: 400.0 mg/kg/injection, schedule: Q01DX001 (ip), vehicle: Klucel (hydroxypropylcellulose) (HPC) 89 % of control

O=C(NCCCNC(=O)Nc1ccc(C2=NCCCN2)cc1)Nc1ccc(C2=NCCCN2)cc1
inactive: dose: 10.0 mg/kg/injection, schedule: Q01DX015 (ip), vehicle: methylcellulose (MC) 103 % of control | dose: 20.0 mg/kg/injection, schedule: Q01DX015 (ip), vehicle: methylcellulose (MC) 103 % of control

Cc1ccc(S(=O)(=O)OCCOCCOCCOCCOCCOCCOS(=O)(=O)c2ccc(C)cc2)cc1
inactive: dose: 100.0 mg/kg/injection, schedule: Q01DX001 (ip), vehicle: other 103 % of control | dose: 200.0 mg/kg/injection, schedule: Q01DX001 (ip), vehicle: other 98 % of control | dose: 400.0 mg/kg/injection, schedule: Q01DX001 (ip), vehicle: other 98 % of control

CC(C)C(Cl)c1ccccc1 (configuration not stated)
inactive: dose: 50.0 mg/kg/injection, schedule: Q01DX009 (ip), vehicle: saline with Tween-80 87 % of control | dose: 100.0 mg/kg/injection, schedule: Q01DX009 (ip), vehicle: saline with Tween-80 91 % of control | dose: 200.0 mg/kg/injection, schedule: Q01DX009 (ip), vehicle: saline with Tween-80 87 % of control

COC(=O)c1nc2c(N)nc(-c3ccccc3)nc2nc1N
inactive: [5] 103 % of control | [6] 98 % of control | [7] 106 % of control

O=C(NC1CCCCC1)Oc1cc(CCl)cc(CCl)c1
inactive: dose: 50.0 mg/kg/injection, schedule: Q01DX009 (ip), vehicle: Klucel (hydroxypropylcellulose) (HPC) 112 % of control | [8] 112 % of control

O=C1CCOc2ccccc21
inactive: dose: 100.0 mg/kg/injection, schedule: Q04DX002 (ip), vehicle: other 87 % of control | dose: 200.0 mg/kg/injection, schedule: Q04DX002 (ip), vehicle: other 90 % of control | dose: 400.0 mg/kg/injection, schedule: Q04DX002 (ip), vehicle: other 94 % of control

CNC(=O)CS(=O)(=O)c1ccc(C)cc1
inactive: [9] 97 % of control | [10] 95 % of control | [11] 93 % of control

Cc1cccc(C2NC(=O)c3ccccc3N2)c1 (configuration not stated)
inactive: [5] 91 % of control | [6] 112 % of control | [7] 91 % of control

CC[N+]1(CC)CC[N+](CC)(CC)CC1
inactive: [9] 97 % of control | dose: 100.0 mg/kg/injection, schedule: Q04DX002 (ip), vehicle: saline 96 % of control | [10] 97 % of control | dose: 200.0 mg/kg/injection, schedule: Q04DX002 (ip), vehicle: saline 96 % of control | [11] 102 % of control | dose: 400.0 mg/kg/injection, schedule: Q04DX002 (ip), vehicle: saline 107 % of control

CCOC(=O)CCC(N)C(=O)OCC (configuration not stated)
inactive: [9] 95 % of control and 91 % of control | dose: 100.0 mg/kg/injection, schedule: Q01DX009 (ip), vehicle: saline 96 % of control | [10] 91 % of control | dose: 200.0 mg/kg/injection, schedule: Q01DX009 (ip), vehicle: saline 88 % of control | [11] 98 % of control and 86 % of control

OCCOCC(F)(F)F
inactive: [9] 97 % of control | [10] 100 % of control | [11] 105 % of control | dose: 400.0 mg/kg/injection, schedule: Q01DX015 (ip), vehicle: saline 96 % of control | dose: 800.0 mg/kg/injection, schedule: Q01DX001 (ip), vehicle: saline 105 % of control | dose: 800.0 mg/kg/injection, schedule: Q01DX015 (ip), vehicle: saline 101 % of control | dose: 1600.0 mg/kg/injection, schedule: Q01DX001 (ip), vehicle: saline 108 % of control

COc1ccc(Br)cc1/C=C\C=O
inactive: dose: 100.0 mg/kg/injection, schedule: Q01DX001 (ip), vehicle: carboxymethylcellulose (CMC) 87 % of control | dose: 200.0 mg/kg/injection, schedule: Q01DX001 (ip), vehicle: carboxymethylcellulose (CMC) 105 % of control | dose: 400.0 mg/kg/injection, schedule: Q01DX001 (ip), vehicle: carboxymethylcellulose (CMC) 100 % of control

COc1cc([N+](=O)[O-])ccc1NC(=O)Nc1ccc(Cl)cc1[N+](=O)[O-]
inactive: [8] 100 % of control | dose: 200.0 mg/kg/injection, schedule: Q01DX009 (ip), vehicle: Klucel (hydroxypropylcellulose) (HPC) 95 % of control | dose: 400.0 mg/kg/injection, schedule: Q01DX009 (ip), vehicle: Klucel (hydroxypropylcellulose) (HPC) 90 % of control

Clc1ccc2c(NCCN3CCCCCC3)nc(C(Cl)(Cl)Cl)nc2c1
inactive: dose: 75.0 mg/kg/injection, schedule: Q01DX001 (ip), vehicle: other 103 % of control | dose: 150.0 mg/kg/injection, schedule: Q01DX001 (ip), vehicle: other 97 % of control

CCOC(=O)c1[nH]c(-c2ccccc2)c(/C=N\O)c1-c1ccccc1
inactive: dose: 50.0 mg/kg/injection, schedule: Q01DX001 (ip), vehicle: Klucel (hydroxypropylcellulose) (HPC) 105 % of control | [3] 100 % of control | [4] 93 % of control
